Measured values taken from patent US20070042967A1, “Proteaseome inhibitors for the treatment of herpesviridae infected individuals” (priority 2002, published 2007).
Where a SMILES comes first, the peptide text is derived from it. The star is where a group is joined. Cbz = O=C(OCc1ccccc1)*; OtBu = CC(C)(C)O*

Assays:
[1] = system: ICAM-1 (CD54); assay: Surface expression of ICAM-1 (CD54) on HELF by flow cytometric analysis; type: cell-based, human; details: GCV for comparison; AD169 m.o.i.=1
Procedure: Next, we wondered whether MG132 is able to reduce the immune modulatory activity of HCMV. Therefore we measured the levels of extracellular IL-6, IL-8, and RANTES in the supernatants of mock-infected and AD-169-infected HELF (m.o.i. =1) following culture in the presence or absence of increasing amounts of MG132. In parallel, surface expression of ICAM-1 (CD54) was measured by flow cytometric analysis. As expected infection of HELF with AD 169 increased secretion of IL-6, EL-8 and RANTES (data not shown) as well as surface expression of ICAM-1 over time (FIGS. 14A and B). […]
(§1) Cell culture fluids were tested for RANTES using the ELISA KIT from R&D System, Germany, following the manufacturers instructions. […] Surface CD54 amounts were analysed using a FACScalibur analyser and cellquest software (Becton Dickinson, Germany). Data were calculated as A mean fluorescence intensities of CD54 and isotype control antibodies (=specific mean fluorescence intensity, MFI).
MG132-dependent suppression of HCMV-induced ICAM-1 surface expression Uninfected and AD169-infected HELF (m.o.i.=1) were grown in the absence or presence of MG132 or GCV and harvested 24 h (A) or 48 h (B) p.i. for surface ICAM-1 measurement by flowcytometric analysis. The specific MFI of uninfected and untreated control HELF was calculated as 100%. […]

[2] = system: IL-8; assay: Extracellular IL-8 in supernatants of AD169-infected HELF (ELISA); type: cell-based, human; details: increasing amounts; data not shown
Procedure: (§2) Next, we wondered whether MG132 is able to reduce the immune modulatory activity of HCMV. Therefore we measured the levels of extracellular IL-6, IL-8, and RANTES in the supernatants of mock-infected and AD-169-infected HELF (m.o.i. =1) following culture in the presence or absence of increasing amounts of MG132. In parallel, surface expression of ICAM-1 (CD54) was measured by flow cytometric analysis. As expected infection of HELF with AD 169 increased secretion of IL-6, EL-8 and RANTES (data not shown) as well as surface expression of ICAM-1 over time (FIGS. 14A and B). While virus-induced secretion of IL-6, IL-8, and RANTES was not inhibited by the proteasome inhibitor, but, in some experiments even increased (data not shown), virus-induced surface expression of ICAM-1 was prevented (FIG. 14). […] For comparison, GCV had no influence on virus-induced ICAM-1 expression, but rather sustained its density on the cell surface (FIG. 14, last columns).
(§3) For measurement of IL-6 and EL-8 cell culture supernatants were collected from mock-infected and AD169-infected HELF cultivated in the presence or absence of MG132 or GCV (m.o.i.=1) immediately after adsorption of the virus (day 0) as well as at day 1, 2, 3 and 5 p.i. and tested for IL-6 and EL-8 by Immulite™ semiautomatic. ELISA analysis as described by the manufacturer (DPC Biermann, Germany).

[3] = system: HSV1 strain K; assay: HSV1 replication in HELF (CPE count); type: cell-based, Herpes Simplex Type 1; details: 0.2 to 0.01 μg/ml (0.42 to 0.021 μM)
Procedure: (§4) Confluente HELF monolayers in 24 well tissue culture plates were infected with HSV1 strain K or HSV2 at a M.O.I. of 0.001. Virus adsorption was allowed for 1 h at 37° C. After removing the viral inoculate, cells were overlayed with MEM/E, 1% Methocel and incubated for two days at 37° C. in a 5% CO2 atmosphere. MG-132 at the indicated concentrations was added into the medium after adsorption. CPEs were quantified by light microscopy. MG132 had no effect on HSV1 (FIG. 6) and HSV2 (not shown) replication in HELF.

[4] = system: HCMV IE1/2 enhancer/promoter; assay: TNFα stimulation / basal activity of the HCMV IE1/2 enhancer/promoter, CAT reporter (pRR55) in HL-60 cells; type: cell-based, HCMV strain Ad169; details: for influence on TNFα stimulation of the IE1/2 enhancer/promoter (in words): HL-60, HCMV AD169 promoter
Procedure: As a model for undifferentiated monocyte/granulocyte progenitor cells HL-60, cells (ATCC No. CCL 240) expressing high levels of CD34+ but low levels of typical differentiation antigens like CD11a-c and CD14 on their surface were used. Furthermore, HL-60 cells have retained the ability, to differentiate into granulocytes and monocytes depending on the stimulus. HL-60 cells were grown in RPMI 1640 medium supplemented with 10% fetal calf serum (both certified endotoxin-free, Biochrome, Germany) at 37° C. in a 5% humidified atmosphere. […] The cells were grown up to 1×10^6 cells per ml. HL-60 cells were transiently transfected with the plasmid pRR55 containing the native HCMV strain Ad169 IE1/2 enhancer/promoter region between nucleotides […] and +52 relative to the transcription start site upstream of the chloramphenicol acetyl transferase (CAT) reporter gene (Fickenscher et al., 1989). Plasmid DNA was prepared using the endofree Maxi Kit (QUIAGEN, Germany or Machery & Nagel, Germany) and stored in aliquots at −20° C. Transient transfection was performed using the DEAE transfection protocol (Stein et al., 1993). Per transfection reaction 5×10^5 cells were washed once with FCS-free medium and then resuspendend in 250 μl transfection buffer containing 1×TBS (24 mM Tris-HCl, pH 7.4, 137 mM NaCl, 5 mM KCl, 0.7 mM CaCl2, 0.5 mM MgCl2, 0.6 mM Na2HPO4), 2.5 μg plasmid DNA (1 μg/μl ) and 5 mg/ml DEAE dextran (Pharmacia-Amersham, Germany). To avoid differences in transfection efficiency, cells for parallel probes were transfected in one reaction and splitted after transfection. Transfection occurred for 1 h at 37° C. After that the cells were washed once with FCS-free RPMI 1640 medium and resuspended in medium containing 10% FCS at a concentration of 5×10^5 cells/5 ml. MG-132 (Calbiochemie, Germany) was dissolved in ethanol (5 μg/μl) and stored in aliqotes at −20 ° C. MG-132 was added into the medium at time zero after transfection and 1 h before TNFα (5 ng/ml, human recombinant TNFα; PAN, Germany, stored in aliquots containing 10 μg/μl at −80° C.). The cells were harvested 48 h after transfection, washed once with PBS and resuspended in 70 μl CAT buffer 1 (0.25 M Tris/HCl, pH 7.8, 0.5 mM EDTA). After 10 min of incubation on ice, cell extracts were prepared by repeated frozen/thawing of the cells (routinely 5 times), 10 min incubation at 65 ° C. to inactivate isoenzymes. Cell debris was removed by centrifugation at 12000 rpm for 10 min in an Eppendorf centrifuge. Cell extracts were measured for their protein concentrations using the method of Bradford (Bradford, 1976) and Bradford reagent (Sigma, Germany). Equal quantities of protein were used in the CAT-assay as described by Gorman et al., 1982. 20 μl lysates were incubated with [^14C]chloramphenicol (Hartman Analytic, Germany) and acetyl-CoA (Sigma, Germany) at 37° C. Reaction was stopped by extraction with ethylacetat (Merck, Germany). The acetylated products were quantified after separation by thin-layer chromatography using a thin layer scintillator. […] In the presence of 0.1 μg/ml MG-132 reduced TNFα stimulation by 50% (FIG. 1).
The reporter gene plasmid pRR55 contains the whole HCMV IE1/2 enhancer/promoter region between nucleotides +52 and −637 with respect to the IE1 transcriptions start site, upstream of the chloramphenicol acetyltransferase (CAT) gene [Fickenscher H, Stamminger T, Riiger R & Fleckenstein B. The role of a repetetive palindrormic sequence element in the human cytomegalovirus major immediate early enhancer. J Gen Virol 1989; 70:107-123.]. The plasmid was kindly provided by T. Stamminger (Eriangen, Germany). For transient transfection of HL-60 cells we used the DEAE dextran method as described earlier [Stein J, Volk H D, Liebenthal C, Kruger D H & Prosch S. Tumor necrosis factor alpha stimulates the activity of the human cytomegalovirus major immediate early enhancer/promoter in immature monocytic cells. J Gen Virol 1993; 74:2333-2338]. […]

[5] = system: HELF; assay: Toxicity for HELFs; type: cell-based, human; details: 0.2 μg/ml
Procedure: (§5) Granulocyte/monocyte progenitor like HL-60 cells (ACC CCL 240) were grown in RPMI 1640 medium supplemented with 10% foetal calf serum (FCS, both from Biochrom, Germany and certified to be endotoxin free). Permissive human embryonal lung fibroblasts (HELF) were grown as monolayer in Dulbecco's modified Eagle's medium (BioWhittaker Europa, Belgium) containing 2.0% FCS. Virus stocks of HCMV strain AD169. of laboratory-derived ganciclovir (GCV)-resistant viruses XbaF 4-3-1 and 1117′ 3-1-2 (both are kindly provided from K. K. Biron, Burroughs Wellcome Colo.), HSV 1, strain K, and HSV 2, strain DG (both are patients isolates from the strain collection of this institute) were prepared from the supernatant of infected cell cultures and stored in liquid nitrogen. For standard plaque reduction assays as well as for experiments with immunoblot analysis HELF were seeded into 25 cm^2 cell culture flasks. For preparation of cytosolic and nuclear extracts cells were seeded into 100 cm^2 culture flasks. Generally, confluent monolayers were infected at an multiplicity of infection (m.o.i.) of 0.0002 for standard plaque reduction assay and a m.o.i. of 1 for immunoblot analysis, for preparation of cytosolic and nuclear extracts as well as for measurement of cytokine, chemokine and adhesion molecules in cell culture supernatant. […]

[6] = system: IL-6; assay: Extracellular IL-6 in supernatants of AD169-infected HELF (ELISA); type: cell-based, human; details: increasing amounts; data not shown
Procedure: as §2, §3

[7] = system: HL-60 cells; assay: Cytotoxic effects on HL-60 cells; type: cell-based; details: at 0.5 and 0.1 μg/ml
Procedure: as §5

[8] = system: HSV2; assay: HSV2 replication in HELF (CPE count); type: cell-based, Herpes Simplex Type 2; details: not shown
Procedure: as §4

[9] = system: RANTES; assay: Extracellular RANTES in supernatants of AD169-infected HELF (ELISA); type: cell-based, human; details: increasing amounts; data not shown
Procedure: as §2, §1

[10] = system: HCMV AD169; assay: HCMV AD169 replication in human embryonal lung fibroblasts (CPE / IE staining, day 5 p.i.); type: cell-based, human cytomegalovirus
From the text: Human embryonal lung fibroblasts (HELF), one of the target cells of HCMV in vivo, are fully permissive for HCMV replication in vitro. For infection experiments the laboratory adapted strain AD169 was propagated on HELFs. Virus stocks prepared from the overlay of infected cells showing 100% cytopathic effect (CPE) by ultra centrifugation were stored in liquid N2. Confluent HELF monolayer in 50 cm^2 flasks were infected with AD169 at a multiplicity of infection (M.O.I.) of 0.01. Adsorption of the virus was allowed for 1 hour at 37° C. After that the monolayer was overlayed with MEM containing 4.5% FCS. Medium was free of or substituted with the proteasome inhibitor at the indicated concentration. Virus cultures were cultivated for 5 days without changing the medium. On day five p.i. virus replication, was quantified by the number of CPE visible in inverse light microscope. For quantification cells were stained with an HCMV-specific antibody recognising the IE proteins IE1 and IE2 (clone E13, Harlan Sera-tab, Loughborough, GB, 1:5000), goat anti-mouse HRP-conjugated IgG (1:4000; Boehringer Mannheim, Indianapolis, Ind., USA) as secondary antibody and the AEC staining kit (Sigma, Germany) which gives a reed nuclear staining of infected cells.
Granulocyte/monocyte progenitor like HL-60 cells (ACC CCL 240) were grown in RPMI 1640 medium supplemented with 10% foetal calf serum (FCS, both from Biochrom, Germany and certified to be endotoxin free). Permissive human embryonal lung fibroblasts (HELF) were grown as monolayer in Dulbecco's modified Eagle's medium (BioWhittaker Europa, Belgium) containing 2.0% FCS. Virus stocks of HCMV strain AD169. of laboratory-derived ganciclovir (GCV)-resistant viruses XbaF 4-3-1 and 1117′ 3-1-2 (both are kindly provided from K. K. Biron, Burroughs Wellcome Colo.), HSV 1, strain K, and HSV 2, strain DG (both are patients isolates from the strain collection of this institute) were prepared from the supernatant of infected cell cultures and stored in liquid nitrogen. […]

Nc1nc(O)c2ncn(COC(CO)CO)c2n1 [GCV, Ganciclovir]
influence on virus-induced ICAM-1 expression [1]: no influence

CC(C)C[C@@H](C=O)NC(=O)[C@H](CC(C)C)NC(=O)[C@H](CC(C)C)NC(=O)OCc1ccccc1 [MG-132, N-carbobenzoxy-L-leucinyl-L-leucinyl-L-leucinal] (Cbz-Leu-Leu-Leu-aldehyde)
virus-induced secretion of IL-8 [2]: not inhibited | effect on HSV1 replication in HELF [3]: no effect | reduction of TNFα stimulation ([4]; 0.1 μg/ml, HL-60, TNFα 5 ng/ml): 50% | decrease of TNFa-mediated stimulation ([4]; 0.8 μM, HL-60): about 80% | concentrations that inhibit basic, TNFα-independent activity of the IE1/2 enhancer/promoter ([4]; HL-60, without TNFα): above 0.5 μg/ml | toxicity for HELFs [5]: non-toxic | virus-induced secretion of IL-6 [6]: not inhibited | cytotoxic effects on HL-60 cells [7]: no cytotoxic effects | effect on HSV2 replication in HELF [8]: no effect | virus-induced secretion of RANTES [9]: not inhibited | effect on virus replication ([10]; 0.01 μg/ml (0.016 μM), AD169, HELF): no effect | number of IE-positive cells per foci compared with the untreated control ([10]; 0.1 μg/ml (0.21 μM)): about 50% | number of virus-infected (IE-positive) cells per focus ([10]; 0.2 μg/ml (0.42 μM), untreated 50): 7 cells

CC(C)C[C@H](NC(=O)OCc1ccccc1)C(=O)N[C@@H](CC(C)C)C(=O)N[C@H](C=O)Cc1ccccc1 [PS-2, Z-Leu-Leu-Phe-CHO] (Cbz-Leu-Leu-Phe-aldehyde)
influence on TNFα stimulation of the IE1/2 enhancer/promoter (in words) [4]: reduce TNFα stimulation in a concentration-dependent manner

Cbz-IE(OtBu)AL-aldehyde [PS-1]
decrease of TNFα stimulation ([4]; 0.5 to 0.1 μg/ml (0.81 to 0.16 μM), HL-60): about 60% | influence on TNFα stimulation of the IE1/2 enhancer/promoter (in words) [4]: reduce TNFα stimulation in a concentration-dependent manner

N-carbobenzoxy-L-leucinyl-L-leucinyl-L-leucinal [MG-132]
influence on TNFα stimulation of the IE1/2 enhancer/promoter (in words) [4]: decreased TNFα stimulation of the IE1/2 enhancer/promoter in a concentration-dependent manner
